Results as given in publication PMC8125234, “Cardiolipin Stabilizes and Increases Catalytic Efficiency of Carnitine Palmitoyltransferase II and Its Variants S113L, P50H, and Y479F” (International Journal of Molecular Sciences, 2021).
Where a chain is given by its changes, count along the chain named. Where two headings read alike, the source gives them in different places.

Tests used:
Format in all cases: biochemical
CPT II WT [1] = biological target: T1, CPT II WT (Homo sapiens, UniProt P23786); assay: Determination of inhibition constant Ki for R-amino carnitine (DTNB enzyme activity assay); settings: 25 °C
T1 construct: made in house; host or cells: Escherichia coli BL21Gold DE
T1 sequence (P23786 26-658): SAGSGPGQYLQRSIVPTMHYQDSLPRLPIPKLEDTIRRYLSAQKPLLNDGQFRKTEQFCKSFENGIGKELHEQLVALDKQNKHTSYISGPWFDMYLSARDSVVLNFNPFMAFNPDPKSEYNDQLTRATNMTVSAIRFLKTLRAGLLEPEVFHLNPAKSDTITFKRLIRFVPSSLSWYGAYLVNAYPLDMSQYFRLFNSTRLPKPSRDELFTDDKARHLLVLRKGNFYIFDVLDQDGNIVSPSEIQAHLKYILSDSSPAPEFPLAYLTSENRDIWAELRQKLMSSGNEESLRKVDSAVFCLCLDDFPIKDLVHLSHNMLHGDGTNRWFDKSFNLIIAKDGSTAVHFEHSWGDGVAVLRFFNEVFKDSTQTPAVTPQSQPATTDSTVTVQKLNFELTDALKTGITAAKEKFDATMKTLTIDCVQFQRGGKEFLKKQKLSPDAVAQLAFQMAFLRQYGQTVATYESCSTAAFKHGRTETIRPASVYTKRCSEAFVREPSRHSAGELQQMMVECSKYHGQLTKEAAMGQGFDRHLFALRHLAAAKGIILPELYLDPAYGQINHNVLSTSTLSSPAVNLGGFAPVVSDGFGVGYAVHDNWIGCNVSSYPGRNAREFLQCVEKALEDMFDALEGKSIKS
Experimental: (§1) Before activity measurements, the storage buffer of the enzymes was replaced with assay buffer (50 mM KH2PO4, 120 mM KCl, 1 mM EDTA-Na4) using vivaspin turbo 4 tubes (Satorius Stedim biotech GmbH, Göttingen, Germany) at 4 °C. The pH of assay buffer was adjusted with KOH to 7.4. The storage buffer was diluted at least 1:500 in assay buffer. In addition, before each experimental set up, the protein samples were centrifuged at 16,000× g for 5 min at 4 °C to remove any micro-aggregates. After that, the protein concentration was determined using bicinchoninic acid (BCA) protein assay kit (Thermo Fisher Scientific GmbH, Berlin, Germany). The enzyme activity of recombinant CPT II was performed following Rufer et al. with modifications described elsewhere. […] After pre-conditioning the mixture to 25 °C for 2 min, the reaction was started by adding 15 nM of recombinant enzyme. The reverse reaction of CPT II was detected with the enzyme activity assay. CPT II catalyzed the transfer of fatty acid residue from Pal-CoA to L-carnitine with release of CoA and Pal-carnitine. The released CoA was then detected by the reaction of the free thiol group with DTNB, forming 5-mercapto-(2-nitrobenzoic acid). This compound has a molar extinction coefficient of 13,600 M^−1 cm^−1 at a wavelength of 410 nm, and its formation was followed spectroscopically. […] The slope of the progress curve was used to determine the reaction velocity.
(§2) The inhibition constant Ki for the competitive inhibitor R-amino carnitine was determined using various concentrations (R-AC, 0, 0.25 and 0.5 mM). A concentration series of L-carnitine in the enzyme assay was used (0–200 mM) while the concentration of Pal-CoA remained constant at 30 µM. Experiments were performed at least three times independently as double determination.
(§3) The values for Ki were calculated on the basis of the obtained KM values, the Michaelis–Menten constant of the inhibited reaction KMi and the inhibitor concentration using the following equation [45]:(3) KMi=(1+[I]/ Ki)KM (4) Ki=KM·[I]/KMi−KM

CPT II variant P50H [2] = biological target: T2, CPT II variant P50H (Homo sapiens, UniProt P23786, P50H); assay: as above; settings: 25 °C
T2 construct: made in house; host or cells: Escherichia coli BL21Gold DE
T2 sequence (P23786 26-658 P50H): T1 sequence (P23786 26-658) with P25H
Experimental: as §1, §2, §3

CPT II variant S113L [3] = biological target: T3, CPT II variant S113L (Homo sapiens, UniProt P23786, S113L); assay: as above; settings: 25 °C
T3 construct: made in house; host or cells: Escherichia coli BL21Gold DE
T3 sequence (P23786 26-658 S113L): T1 sequence (P23786 26-658) with S88L
Experimental: as §1, §2, §3

CPT II variant Y479F [4] = biological target: T4, CPT II variant Y479F (Homo sapiens, UniProt P23786, Y479F); assay: as above; settings: 25 °C
T4 construct: made in house; host or cells: Escherichia coli BL21Gold DE
T4 sequence (P23786 26-658 Y479F): T1 sequence (P23786 26-658) with Y454F
Experimental: as §1, §2, §3

CPT II WT [5] = biological target: T1, CPT II WT; assay: Determination of the kinetic parameters kcat and KM; settings: palmitoyl-CoA varied, 25 °C
Experimental: as §1
(§4) It is assumed that the reaction catalyzed by CPT II represents a ping-pong mechanism or compulsory order ternary-complex mechanism.
(§5) The kinetic parameters were determined by evaluating the obtained v/S characteristic according to the Michaelis–Menten Equation (1). The […] kcat was calculated using Equation (2):(1) v=Vmax∗[S]/KM+[S] (2) kcat=Vmax/cenzyme

CPT II variant P50H [6] = biological target: T2, CPT II variant P50H; assay: as above; settings: palmitoyl-CoA varied, 25 °C
Experimental: as §1, §4, §5

CPT II variant S113L [7] = biological target: T3, CPT II variant S113L; assay: as above; settings: palmitoyl-CoA varied, 25 °C
Experimental: as §1, §4, §5

CPT II variant Y479F [8] = biological target: T4, CPT II variant Y479F; assay: as above; settings: palmitoyl-CoA varied, 25 °C
Experimental: as §1, §4, §5

[9] = 0.25 mM CL, read-out: Inhibition Constant Ki in Presence of CL
[10] = absence of CL, read-out: Inhibition Constant Ki in Absence of CL

C[N+](C)(C)C[C@H](N)CC(=O)[O-] [R-amino carnitine, R-Aminocarnitine]
Ki (CPT II WT [1]; [9]): 105 ± 2 µM | Ki (CPT II WT [1]; [10]): 493 ± 4 µM | Ki (CPT II variant P50H [2]; [9]): 46 ± 6 µM | Ki (CPT II variant P50H [2]; [10]): 134 ± 11 µM | Ki (CPT II variant S113L [3]; [9]): 36 ± 16 µM | Ki (CPT II variant S113L [3]; [10]): 173 ± 20 µM | Ki (CPT II variant Y479F [4]; [9]): 108 ± 39 µM | Ki (CPT II variant Y479F [4]; [10]): 756 ± 62 µM

CCCCCCCCCCCCCCCC(=O)SCCNC(=O)CCNC(=O)[C@H](O)C(C)(C)COP(=O)(O)OP(=O)(O)OC[C@H]1O[C@@H](n2cnc3c(N)ncnc32)[C@H](O)[C@@H]1OP(=O)(O)O [palmitoyl-CoA, Palmitoyl-Coenzyme A]
Km (CPT II WT [5]; 0.25 mM CL): 6.7 ± 1.1 µM | kcat (CPT II WT [5]; 0.25 mM CL): 145.3 ± 9.0 s⁻¹ | Km (CPT II WT [5]; absence of CL): 7.1 ± 1.1 µM | kcat (CPT II WT [5]; absence of CL): 144.7 ± 3.1 s⁻¹ | Km (CPT II variant P50H [6]; 0.25 mM CL): 6.7 ± 1.8 µM | kcat (CPT II variant P50H [6]; 0.25 mM CL): 138.2 ± 8.4 s⁻¹ | Km (CPT II variant P50H [6]; absence of CL): 5.5 ± 1.4 µM | kcat (CPT II variant P50H [6]; absence of CL): 144.3 ± 18 s⁻¹ | Km (CPT II variant S113L [7]; 0.25 mM CL): 12.3 ± 3 µM | kcat (CPT II variant S113L [7]; 0.25 mM CL): 145.8 ± 0.9 s⁻¹ | Km (CPT II variant S113L [7]; absence of CL): 11 ± 3.6 µM | kcat (CPT II variant S113L [7]; absence of CL): 142.1 ± 25 s⁻¹ | Km (CPT II variant Y479F [8]; 0.25 mM CL): 6.7 ± 0.3 µM | kcat (CPT II variant Y479F [8]; 0.25 mM CL): 144.8 ± 13 s⁻¹ | Km (CPT II variant Y479F [8]; absence of CL): 5.1 ± 2.3 µM | kcat (CPT II variant Y479F [8]; absence of CL): 141.4 ± 1.7 s⁻¹
